System: HEK293T viability, CellTiter-Glo ATP luminescence, 72 h
Assay: ATP-based viability loss in HEK293T cells – cell-based, CellTiter-Glo luminescence, cherry-pick, set 3, cytotoxicity control, dose response (AID 720588);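 further: potency for luminescence loss meaning cytotoxic compounds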

| SMILES | AC35 |
| --- | --- |
| C[C@]12CC[C@H](O)C[C@H]1CC[C@@H]1[C@@H]2CC[C@]2(C)[C@@H](C3=CC(=O)OC3)CC[C@]12O | 0.629 µM |
| CCN1/C(=C/C(C)=C/c2sc3ccccc3[n+]2CC)Sc2ccccc21 | 0.301 µM |
| Nc1ccc(Oc2cccc(Oc3ccc(N)cc3)c2)cc1 | 6.82 µM |
| C[C@]12CC[C@H]3[C@@H](CC[C@]4(O)C[C@@H](O)CC[C@]34C=O)[C@@]1(O)CC[C@@H]2C1=CC(=O)OC1 | 0.774 µM |
| Cc1nc(N)nc(N)c1-c1ccc(Cl)c(Cl)c1 | 1.72 µM |
| O=C1NC(=O)N(Cc2ccccc2)C(=O)/C1=C\C=C\c1ccco1 | 12.9 µM |
| O=C(Nc1ccccc1F)N1CCCCN2[C@H](CO)[C@H](c3ccc(/C=C/c4ccccc4)cc3)[C@H]2C1 | 13.7 µM |
| O=C1Nc2ccccc2C1=Nc1ccc(Br)cc1 | 14.1 µM |
| N#C[C@H]1[C@H](c2ccc(C#Cc3ccccc3F)cc2)[C@@H](CO)N1C(=O)C1CCCCC1 | 13.2 µM |
| CCN1CCS/C1=C\C=C\C1=[N+](CC)CCS1 | 11.2 µM |
| C=C(C(=O)c1ccccc1)C(C)C(=C)C(=O)c1ccccc1 | 5.24 µM |
| C(=N\Nc1ccc2ccccc2n1)/c1ccc2c(c1)OCCO2 | 10.4 µM |
| COC(=O)C[C@H]1CC[C@@H]2[C@H](COc3ccc(NC(=O)Nc4cccc(Cl)c4)cc3C(=O)N2C)O1 | 17.8 µM |
| COC1C(O)C(C)OC(OC2CCC3(C)C(CCC4C3C(O)CC3(C)C(C5=CC(=O)OC5)CCC43O)C2)C1O (configuration not stated) | 0.244 µM |
| C[C@@H]1CN([C@H](C)CO)C(=O)c2cc(NC(=O)c3ccccc3)ccc2O[C@@H](C)CCCCO[C@H]1CN(C)C(=O)Nc1cccc2ccccc12 | 2.06 µM |
| COc1ccc(NC(=O)N2CCCCN3[C@@H](CO)[C@H](c4ccc(C5=CCCCC5)cc4)[C@@H]3C2)cc1 | 10 µM |
| C[C@@H]1CN([C@@H](C)CO)C(=O)Cc2cc(N(C)C)ccc2O[C@H]1CN(C)Cc1ccc(C(=O)Nc2ccccc2N)cc1 | 7.46 µM |
| COc1ccc(Cn2cc3c(-c4ccc(F)cc4)nnc-3c3cc(OC)c(OC)cc32)cc1 | 10.2 µM |
| C/C(=C\c1ccccc1)C(=O)N1CCC=CC1=O | 22.3 µM |
| CCCCC[C@H](C)N1C[C@H](COCc2ccccc2)Oc2cc(N3CC[C@@H](N(C)C)C3)ccc2S1(=O)=O | 14.8 µM |
| CC(=O)Oc1ccc(-c2ccc(C(=O)Nc3cccc(S(=O)(=O)N4CCOCC4)c3)cc2)cc1 | 0.274 µM |
| C=CC[n+]1c(-c2ccc(C)cc2)csc1Nc1ccc(NC(C)=O)cc1 | 12.5 µM |
| O=C1c2ccccc2C(=O)c2cc(N3CCCCC3)ccc21 | 6.31 µM |

| SMILES | AC35 |
| --- | --- |
| COc1ccc(OC)c(-c2nnc3n2N=C(c2ccc(OC)c(OC4CCCC4)c2)CS3)c1 | 11.6 µM |
| C[C@@H]1CN([C@@H](C)CO)C(=O)c2cccc(N(C)C)c2O[C@@H]1CN(C)Cc1ccc(C(=O)Nc2ccccc2N)cc1 | 8.32 µM |
| O=C(Nc1ccc2c(c1)OCO2)N1C[C@@H]2N[C@H](C1)C2c1ccc(C=Cc2ccccc2)cc1 (some centres not stated) | 9.59 µM |
| N#C[C@@H]1[C@H](c2ccc(C#Cc3ccccc3F)cc2)[C@@H](CO)N1C(=O)c1cccnc1 | 25.4 µM |
| C/C(=N\NC(=O)c1n[nH]c2c1CCC2)c1cccs1 | 10.8 µM |
| C[C@@H]1CN([C@H](C)CO)C(=O)c2cc(N(C)C)ccc2O[C@H]1CN(C)Cc1ccc(C(=O)Nc2ccccc2N)cc1 | 16.5 µM |
| COc1cccc(O)c1CN1CCC(C(=O)Nc2ccc(-c3cccc(C)c3)cc2)CC1 | 11.8 µM |
| Cc1cc2sc3ccc(C#CC4(O)CCCCC4)cc3c(=O)c2cc1C | 18.4 µM |
| Nc1nc(=S)c2[nH]cnc2[nH]1 | 5.79 µM |
| COc1ccc(S(=O)(=O)Nc2ccc3c(c2)C(=O)N([C@H](C)CO)C[C@@H](C)[C@@H](CN(C)Cc2ccc(C(=O)Nc4ccccc4N)cc2)O3)cc1 | 15 µM |
| C[C@@H]1CN([C@@H](C)CO)C(=O)c2cccc(NS(=O)(=O)c3ccc(Cl)cc3)c2O[C@@H]1CN(C)Cc1ccc(C(=O)Nc2ccccc2N)cc1 | 6.6 µM |
| COc1ccc(-c2cn(-c3ccc(OC)cc3)c3[n+]2-c2ccccc2CC3)cc1 | 7.06 µM |
| C[C@]12CCC3C(CCC4=CC(O)CC[C@@]43/C=N/O)C1(O)CCC2C1=CC(=O)OC1 (some centres not stated) | 0.694 µM |
| O=c1ccc2[n+]([O-])c3ccc(O)cc3oc-2c1 | 4.57 µM |
| CO[C@H]1CN(C)C(=O)c2cc(NC(=O)c3ccc(Oc4ccccc4)cc3)ccc2OC[C@H](C)NC[C@@H]1C | 14.5 µM |
| C[C@@H]1CN([C@@H](C)CO)S(=O)(=O)c2ccc(C#CC(C)(C)O)cc2O[C@H]1CN(C)Cc1ccc(-c2ccccc2)cc1 | 6.7 µM |
| C[C@@H]1CCCCO[C@H](CN(C)Cc2ccc(C(=O)Nc3ccccc3N)cc2)[C@@H](C)CN([C@H](C)CO)C(=O)c2cc(NS(=O)(=O)c3ccc(F)cc3)ccc2O1 | 13.3 µM |
| C[C@H]1CN([C@@H](C)CO)S(=O)(=O)c2ccc(C#Cc3ccncc3)cc2O[C@@H]1CN(C)C(=O)Nc1ccc2c(c1)OCO2 | 2.99 µM |
| C/C(=N\Nc1cccc2cccnc12)c1ccccn1 | 11.8 µM |
| C[C@@H]1O[C@@H](O[C@@H]2C=C3CC[C@@H]4C(CC[C@]5(C)[C@@H](c6ccc(=O)oc6)CC[C@]45O)[C@@]3(C)CC2)[C@H](O)[C@H](O)[C@H]1O (some centres not stated) | < 0.011 µM |
| COC(=O)c1ccccc1-c1c2ccc(=N)cc-2oc2cc(N)ccc12 | 15.3 µM |
| O=C(O)c1ccc(N/N=C/c2ccc3c(c2)OCO3)cc1 | 7.33 µM |
| O=C1Nc2cc(C(=O)NCCN3CCCCCC3)ccc2S/C1=C\c1ccccc1 | 11.7 µM |

| SMILES | AC35 |
| --- | --- |
| CC(=O)OC1CC(OC2C(O)CC(OC3C(O)CC(OC4CCC5(C)C(CCC6C5CCC5(C)C(C7=CC(=O)OC7)CCC65O)C4)OC3C)OC2C)OC(C)C1OC1OC(CO)C(O)C(O)C1O (configuration not stated) | 0.0583 µM |
| Cc1ccc(S(=O)(=O)Nc2ccc3c(c2)C(=O)N([C@@H](C)CO)C[C@H](C)[C@@H](CN(C)Cc2ccc(C(F)(F)F)cc2)OCCCC[C@@H](C)O3)cc1 | 12.8 µM |
| C(=N\Nc1nc2ccccc2[nH]1)/c1ccccn1 | 6.22 µM |
| C[C@@H]1CN([C@@H](C)CO)S(=O)(=O)c2ccc(C#Cc3ccncc3)cc2O[C@H]1CN(C)S(=O)(=O)c1ccccc1 | 24.5 µM |
| C=C1C(=O)OC2C1CCC(C)C1C=CC(=O)C12C (configuration not stated) | 8.71 µM |
| CN(C[C@H]1N[C@@H](CO)[C@@H]1c1ccc(C2=CCCC2)cc1)C(=O)c1cccc(F)c1 | 4.63 µM |
| CC(C)(C)C(=O)Cn1ncc(Cl)c(Cl)c1=O | 14.8 µM |
| Cc1nc(N)nc(N)c1CCCc1ccc(Cl)c(Cl)c1 | 3.58 µM |
| O=C(CCc1ccccc1)NC(c1cccs1)c1cc(Cl)c2cccnc2c1O (configuration not stated) | 7.93 µM |
| CC12CCC3C(CCC4(O)CC(O)CCC34C=NO)C1(O)CCC2C1=COC(=O)C1 (configuration not stated) | 0.25 µM |
| COC1C(C)OC(OC2CC(C)(O)Cc3cc4c(c(O)c32)C(=O)c2c(O)cc3c(c2C4=O)OC2OC3(C)C(O)C(N(C)C)C2O)C(OC)C1(C)OC (configuration not stated) | 0.128 µM |
| CC1=NN(c2ccccc2)C(=O)/C1=C\C=C\c1ccccc1 | 19.6 µM |
| O=C(c1nnsc1S(=O)c1ccc(Cl)cc1)N1CCOCC1 (configuration not stated) | 5.6 µM |
| CCc1ccc(/C=C2\SC(=S)N(CCCC(=O)N3CCN(C)CC3)C2=O)cc1 | 17.6 µM |
| COc1ccc(C=C2CCc3ccccc3C2=O)cc1 | 16.2 µM |
| CCCCCCCN(c1ccccc1)[C@@H]1C[C@H]2CCCC(=O)N3CC[C@@H](C1)[C@@H]23 | 13.3 µM |
| Cc1cc(-c2nc3cc(F)ccc3s2)ccc1N | 16.9 µM |
| C[C@H]1CN([C@@H](C)CO)C(=O)c2cc(NS(=O)(=O)c3ccc(Cl)cc3)ccc2O[C@H]1CN(C)Cc1ccc(Cl)c(Cl)c1 | 16.5 µM |
| C(=N\Nc1nc2ccccc2s1)/c1ccccn1 | 3.56 µM |
| COc1cc2c(OC(C)=O)c3c(c(-c4ccc5c(c4)OCO5)c2cc1OC)C(=O)OC3 | 0.964 µM |
| C[C@@H]1CN([C@H](C)CO)C(=O)Cc2cc(NC(=O)CCCCCC(=O)Nc3ccccc3N)ccc2O[C@@H]1CN(C)CC1CCCCC1 | 20.1 µM |
| C[C@@H]1CCCCO[C@H](CN(C)Cc2ccc(C(F)(F)F)cc2)[C@H](C)CN([C@H](C)CO)C(=O)c2cc(NC(=O)CCCN(C)C)ccc2O1 | 14.6 µM |
| BrC(=C\c1ccccc1)/C=N/n1cnnc1 | 17.8 µM |

| SMILES | AC35 |
| --- | --- |
| C[C@@H]1O[C@@H](O[C@@H]2C=C3CCC4C(CC[C@]5(C)[C@@H](c6ccc(=O)oc6)CC[C@]45O)[C@@]3(C)CC2)[C@H](O)[C@H](O)[C@H]1O (some centres not stated) | 0.0201 µM |
| CC(C)CC#Cc1ccc([C@@H]2[C@@H](CO)N3CCCCN(S(=O)(=O)c4ccc(F)cc4)C[C@H]23)cc1 | 16.1 µM |
| COC(=O)CC1(C(=O)OC)Oc2ccc(Br)cc2C(=O)N1c1cccc(Cl)c1Cl (configuration not stated) | 13.1 µM |
| CCN1C/C(=C/c2ccc(N3CCOCC3)cc2)C(=O)/C(=C/c2ccc(N3CCOCC3)cc2)C1 | 9.96 µM |
| Cc1ccc(/C=N/Nc2ccc3ccccc3n2)o1 | 15.5 µM |
| O=c1ccc2ccccc2c2ccccc12 | 14.1 µM |
| CN1C2CCC1/C(=C/c1ccccn1)C(=O)/C2=C\c1ccccn1 | 1.1 µM |
| O=C1NC(=O)N(c2ccccc2)C(=O)/C1=C\C=C\c1ccccc1 | 19.1 µM |
| C[C@]12CC[C@H](O)C[C@H]1CC[C@@H]1C2CC[C@]2(C)[C@@H](C3=CC(=O)OC3)[C@@H](O)C[C@]12O (some centres not stated) | 1.86 µM |
| c1ccc(Nc2nnc(-c3ccc4c(c3)OCO4)o2)cc1 | 3.33 µM |
| Nc1ccc(Cn2ccc3c4c(N)nc(N)nc4ccc32)cc1 | 0.125 µM |
| CC(C)(C)c1ccc(/C=N/Nc2ccc(C(=O)O)cc2)cc1 | 16.5 µM |
| C[C@@H]1CN([C@H](C)CO)C(=O)c2cccc(N(C)C)c2O[C@@H]1CN(C)Cc1ccc(C(=O)Nc2ccccc2N)cc1 | 11.7 µM |
| O=C(NC1CCCC1)N1CCCCN2[C@@H](CO)[C@@H](c3ccc(/C=C/c4ccccc4)cc3)[C@@H]2C1 | 9.42 µM |
| CN(C[C@H]1N[C@@H](CO)[C@@H]1c1ccc(C2=CCCC2)cc1)C(=O)c1ccc(F)cc1 | 5.64 µM |
| NC1=CC(=O)C(=O)c2cccnc21 | 20.7 µM |
| Nc1nc(N)c(-c2cccc(C(F)(F)F)c2)c(Cc2cccc(C(F)(F)F)c2)n1 | 8.95 µM |
| CN(C)c1ccc(C=c2c3ccccc3n3c2c2c([n+]3C)CCCC2)cc1 | 2.08 µM |
| Cn1ccc2cc(-c3ccc4ncnc(NCc5cccs5)c4c3)ccc21 | 9.58 µM |
| CNC[C@H](CC1CCCCC1)NC[C@H](CO)NCCc1cccc(C(F)(F)F)c1 | 10.8 µM |
| N#CC(=C1C=CC(=NO)C(Cl)=C1)c1ccccc1 | 11.2 µM |
| CCCN1C/C(=C/c2ccc3c(c2)OCO3)C(=O)/C(=C/c2ccc3c(c2)OCO3)C1 | 21.2 µM |
| O=C(Nc1ccc(F)cc1)N1CCCCN2[C@@H](CO)[C@H](c3ccc(C4=CCCCC4)cc3)[C@@H]2C1 | 9.39 µM |

Source: PubChem BioAssay AID720588 (Broad Institute, 2013)
